Where two headings read alike, the source gives them in different places.
Target: Arf6 (Homo sapiens (Human), UniProt P62330)
Test: Fluorometric assay for Arf6 nucleotide exchange catalyzed by ARNO Sec7 domain (GTP-BODIPY FL)
Format: biochemical
Method: FIGS. 1A-1D: Fluorometric high throughput assay for Arf6 nucleotide exchange catalyzed by ARNO Sec7 domain. FIG. 1A: Principle of the assay. FIG. 1B: SDS-PAGE analysis of N-terminally His-tagged Arf6(14-175) and ARNO(50-255) purified from the E. coli cultures by immobilized metal affinity chromatography. FIG. 1C: Correlation between signal intensity and ARNO concentration. The assay was performed using 50 mM Tris-HCl, pH 7.5, 1 mM MgCl2, 0.01% TX-100, 1% DMSO, 50 nM GTP-BODIPY FL, supplemented with ARNO-Sec7 at indicated concentrations in the absence or in the presence of 0.2 μM Arf6-GDP. Fluorescence intensities were monitored using a Synergy 4 plate reader (BioTek) at the excitation and emission wavelengths of 490 nm and 520 nm, respectively. FIG. 1D: Time course of apparent inhibitory potency of GDP. The assay was performed in automated mode using a Matrix PlateMate liquid handler.
The primary biochemical assay uses a fluorometric assay for monitoring the replacement of bound nucleotide with a fluorogenic GTP derivative bearing a BODIPY FL moiety, allowing for the identification of compounds that can inhibit this exchange (see FIG. 1A). In certain embodiments, the methods disclosed herein may exploit the reduction of intramolecular fluorescence quenching of the modified nucleotide upon its binding to the target protein (see, e.g., McEwen D P, Gee K R, Kang H C, Neubig R R. Fluorescent BODIPY-GTP analogs: real-time measurement of nucleotide binding to G proteins. Anal Biochem. 2001 Apr. 1; 291(1): 109-17).
The fluorometric assay formatted for 96-well microtiter plates has passed quality control based on the following criteria: i) S/B ratio of 4-fold and Z′-factor of 0.61; ii) linear correlation between signal intensity and ARNO concentration (see FIG. 1C); iii) sufficiently reproducible inhibitory effects of the reference inhibitor GDP for assay durations up to at least 1 hour (see FIG. 1D); and iv) lack of apparent fluorescence quenchers among 400 randomly selected compounds. The assay is amenable to automation with a throughput of approximately 5,000 data points per 8 hours.

[1] = 20 nM Arf6 assay, read-out: IC50 (μM) 20 nM Arf6
[2] = 200 nM Arf6 assay, read-out: IC50 (μM) 200 nM Arf6

Chain of Arf6 (P62330 14-175): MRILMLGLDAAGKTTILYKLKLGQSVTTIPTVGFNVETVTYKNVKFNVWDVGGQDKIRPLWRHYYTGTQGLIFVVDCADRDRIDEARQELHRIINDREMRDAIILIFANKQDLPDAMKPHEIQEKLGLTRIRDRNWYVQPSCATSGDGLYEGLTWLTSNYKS

SMILES | IC50 [1] [µM] | also measured
Cn1c(N)c(C(=O)COC(=O)c2ccccc2SCc2ccc(C#N)cc2)c(=O)[nH]c1=O [Compound 134] | 13 | 
CC(C)CC(=O)Nc1ccc(-c2cc(=O)n3nc(C(F)(F)F)c(-c4ccc(Cl)cc4)c3[nH]2)cc1 [Compound 35] | 1.7 | 
Cc1nn2c(=O)cc(-c3ccc(NC(=O)c4ccccc4)cc3)[nH]c2c1-c1ccc(Cl)cc1 [Compound 48] | 2.4 | 
CSc1nnc2c(n1)OC(c1cc(O)ccc1[N+](=O)[O-])Nc1ccccc1-2 (stereo not drawn) [Compound 137] | 17 | 
CCC(C)(C)C1CCc2c(sc3c2C(=O)NC(c2cc(OC)c(O)c([N+](=O)[O-])c2)N3)C1 (stereo not drawn) [Compound 113] | 0.56 | 
O=c1cc(-c2cccc(Oc3cc(F)cc(F)c3)c2)[nH]c2c(-c3ccc(Cl)c(Cl)c3)c(C(F)(F)F)nn12 [Compound 2] | 0.33 | 
O=c1cc(-c2ccc([N+](=O)[O-])cc2)[nH]c2c(-c3ccc(Cl)cc3)c(C3CC3)nn12 [Compound 104] | 14 | 
Cc1nn2c(=O)cc(-c3ccc(F)cc3)[nH]c2c1-c1ccc(Cl)cc1 [Compound 93] | 8.2 | 
Cc1nn2c(=O)cc(-c3ccc([N+](=O)[O-])cc3)[nH]c2c1-c1ccc(-c2ccccc2)cc1 [Compound 18] | 1.1 | 
CCCc1cc(=O)[nH]c(SCc2cc(=O)n3cc(Br)ccc3n2)n1 [Compound 132] | 30 | 
CC(=O)Nc1ccc(-c2cc(=O)n3nc(C(F)(F)F)c(-c4ccc(Cl)cc4)c3[nH]2)cc1 [Compound 67] | 3.7 | 
Cc1nn2c(=O)cc(-c3ccc([N+](=O)[O-])cc3)[nH]c2c1-c1ccc(Cl)cc1Cl [Compound 36] | 1.7 | 
O=c1cc(-c2ccc([N+](=O)[O-])cc2)[nH]c2c(-c3ccc(Cl)cc3)c(CO)nn12 [Compound 90] | 7.8 | 
Cc1nn2c(=O)cc(-c3ccc([N+](=O)[O-])cc3)[nH]c2c1-c1ccc(Oc2ccccc2)cc1 [Compound 30] | 1.5 | 
N#Cc1ccc(-c2cc(=O)n3nc(C4CC4)c(-c4ccc(Cl)cc4)c3[nH]2)cc1 [Compound 58] | 3.2 | 
CC(c1ccccc1)c1cc(=O)n2nc(C(F)(F)F)c(-c3ccc(Cl)cc3)c2[nH]1 (stereo not drawn) [Compound 45] | 2.3 | 
c1nc(C2CCCNC2)cc(N2C[C@@H]3C[C@@H]4C[C@H](C3)N[C@@H]2C4)n1 (stereo partly drawn) [Compound 143] |  | inhibition at 10 µM (20 nM assay, 10 μM concentration): ~31%
O=c1cc(-c2ccc(Oc3ccccc3)cc2)[nH]c2c(-c3ccc(Cl)c(Cl)c3)c(C(F)(F)F)nn12 [Compound 6] | 0.66 | IC50 [2]: 1.1 µM
Cc1ccc(C(=O)OCc2cc(=O)n3cc(Br)ccc3n2)cn1 [Compound 130] | 9.9 | 
CC(C)(C)c1nn2c(=O)cc(-c3ccccc3C#N)[nH]c2c1-c1ccc(Cl)cc1 [Compound 32] | 1.5 | 
CCC(=O)Nc1ccc(-c2cc(=O)n3nc(C(F)(F)F)c(-c4ccc(Cl)cc4)c3[nH]2)cc1 [Compound 16] | 1 | 

SMILES | IC50 [1] [µM] | also measured
CC(C)(C)c1nn2c(=O)cc(-c3ccccn3)[nH]c2c1-c1ccc(Cl)cc1 [Compound 82] | 6 | 
O=c1cc(-c2cccc(Br)c2)[nH]c2c(-c3ccc(Cl)cc3)c(C(F)(F)F)nn12 [Compound 34] | 1.6 | 
COc1ccc(-c2cccc(-c3cc(=O)n4nc(C(F)(F)F)c(-c5ccc(Cl)cc5)c4[nH]3)c2)cn1 [Compound 31] | 1.5 | 
O=c1cc(-c2ccc(Br)cc2)[nH]c2c(-c3ccc(Cl)cc3)c(C(F)(F)F)nn12 [Compound 15] | 1.1 | 
CC(C)(C)c1nn2c(=O)cc(-c3cccc(C#N)c3)[nH]c2c1-c1ccc(Cl)cc1 [Compound 44] | 2.2 | 
CCC(=O)Nc1cccc(-c2cc(=O)n3nc(C(F)(F)F)c(-c4ccc(Cl)cc4)c3[nH]2)c1 [Compound 61] | 3.3 | 
O=[N+]([O-])c1ccc(C2=CC(O)n3nc(-c4cccc(Cl)c4)cc3N2)cc1 (stereo not drawn) [Compound 100] | 13 | IC50 [2]: 10 µM
CC(=O)Nc1cccc(-c2cc(=O)n3nc(C(F)(F)F)c(-c4ccc(Cl)cc4)c3[nH]2)c1 [Compound 74] | 4.3 | 
CN(C)C(=O)c1ccc(-c2cc(=O)n3nc(Cc4ccccc4)c(-c4ccc(Cl)cc4)c3[nH]2)cc1 [Compound 56] | 3.2 | IC50 [2]: 2.6 µM
Nc1cccc(-c2cc(=O)n3nc(C(F)(F)F)c(-c4ccc(Cl)cc4)c3[nH]2)c1 [Compound 88] | 7 | 
O=c1cc(-c2ccc([N+](=O)[O-])cc2)[nH]c2c(-c3ccccc3)c(C(F)(F)F)nn12 [Compound 72] | 4.2 | IC50 [2]: 3.8 µM
Cc1nn2c(=O)cc(-c3ccc([N+](=O)[O-])cc3)[nH]c2c1-c1cccc2ccccc12 [Compound 51] | 2.7 | IC50 [2]: 4.9 µM
N#Cc1ccc(-c2cc(=O)n3nc(C4CCOCC4)c(-c4ccc(Cl)cc4)c3[nH]2)cc1 [Compound 112] | 20 | 
O=c1c2c(-c3ccc(Cl)cc3)csc2[nH]c(=S)n1Cc1ccccc1 [Compound 129] |  | IC50 [2]: 9.7 µM
COc1ccc(-c2c(C)nn3c(=O)cc(-c4ccc([N+](=O)[O-])cc4)[nH]c23)cc1 [Compound 109] |  | IC50 [2]: 17 µM
O=c1[nH]c(CSc2ncnc3sccc23)nc2ccsc12 [Compound 138] | 17 | 
O=C1NC(=S)N(c2cccc(Cl)c2)C(=O)/C1=C/c1cccn1-c1ccc(Cl)cc1 [Compound 118] |  | IC50 (IC50 (μM) 200 nM Arf6, 200 nM Arf6 assay): 1.8 µM
Cc1nn2c(=O)cc(-c3ccc([N+](=O)[O-])cc3)[nH]c2c1-c1ccc(Cl)cc1Cl [Compound 76] | 4.5 | 
Cc1nn2c(=O)cc(-c3cccc(-c4cccnc4)c3)[nH]c2c1-c1ccc(Cl)cc1 [Compound 53] | 3 | 
Cc1nn2c(=O)cc(-c3cccc(-c4ccncc4)c3)[nH]c2c1-c1ccc(Cl)cc1 [Compound 70] | 4.1 | 
COCC(=O)Nc1ccc(-c2cc(=O)n3nc(C(F)(F)F)c(-c4ccc(Cl)cc4)c3[nH]2)cc1 [Compound 75] | 4.4 | 

SMILES | IC50 [1] [µM] | also measured
O=c1cc(-c2ccccc2Br)[nH]c2c(-c3ccc(Cl)cc3)c(C(F)(F)F)nn12 [Compound 62] | 3.3 | 
O=c1cc(-c2ccc(Cl)cc2)[nH]c2c(-c3ccc(Cl)cc3)c(C(F)(F)F)nn12 [Compound 25] | 1.4 | 
Cc1cccc(N2C(=O)/C(=C/c3cc([N+](=O)[O-])cc(Br)c3O)SC2=S)c1 [Compound 115] |  | IC50 [2]: 1.1 µM
Cc1nn2c(=O)cc(-c3ccc([N+](=O)[O-])cc3)[nH]c2c1-c1cccc(Cl)c1Cl [Compound 57] | 3.2 | 
O=c1cc(-c2ccc([N+](=O)[O-])cc2)[nH]c2c(-c3ccc(Cl)c(C(F)(F)F)c3)c(C(F)(F)F)nn12 [Compound 8] | 0.67 | 
O=C1NC(=S)S/C1=C/c1ccc(N2N=C(c3ccccc3)CC2c2ccccc2)cc1 (stereo not drawn) [Compound 121] | 3.7 | 
O=C(COC(=O)c1cc2ccccc2[nH]1)NCCSc1ccc(Cl)cc1 [Compound 139] | 19 | 
O=c1cc(-c2ccc([N+](=O)[O-])cc2)[nH]c2c(-c3ccc(Cl)cc3)c(CC3CCOCC3)nn12 [Compound 63] | 3.6 | 
Cn1cc(/C=C(\CC(=O)O)C2Nc3ccccc3S2)c(-c2ccc3c(c2)OCCCO3)n1 (stereo not drawn) [Compound 128] | 8.4 | 
Cc1nn2c(=O)cc(-c3ccc([N+](=O)[O-])cc3)[nH]c2c1-c1ccc(Cl)cc1 [Compound 39] | 1.9 | IC50 [2]: 4.7 µM
O=c1cc(Cc2ccccc2)[nH]c2c(-c3ccccc3)c(-c3ccccc3)nn12 [Compound 89] |  | IC50 [2]: 7 µM
O=C(O)c1ccc(C2Nc3c(Br)cccc3C3C=CCC32)cc1 (stereo not drawn) [Compound 127] |  | IC50 [2]: 8 µM
CSc1ccc(Cc2nn3c(=O)cc(-c4ccc([N+](=O)[O-])cc4)[nH]c3c2-c2ccc(Cl)cc2)cc1 [Compound 54] | 3 | 
N#Cc1ccc(-c2cc(=O)n3nc(C(F)(F)F)c(-c4ccc(Cl)cc4)c3[nH]2)cc1 [Compound 40] | 1.9 | 
O=C(Nc1cc(Cl)c(-c2cccc3cccnc23)c(Cl)c1)c1cc(Cl)cc(Br)c1O [Compound 119] | 2.1 | 
O=c1c(Cl)c(-c2ccc([N+](=O)[O-])cc2)[nH]c2c(-c3ccc(Cl)cc3)c(C(F)(F)F)nn12 [Compound 10] | 0.88 | 
O=c1c(Cl)c(-c2ccccc2)[nH]c2c(-c3ccc(Cl)cc3)c(C(F)(F)F)nn12 [Compound 13] | 0.98 | 
O=c1cc(-c2ccc([N+](=O)[O-])cc2O)[nH]c2c(-c3ccc(Cl)cc3)c(Cc3ccccc3)nn12 [Compound 37] |  | IC50 [2]: 1.7 µM
O=C1c2ccccc2C(=O)C1C1=NC2c3ccccc3OC2S1 (stereo not drawn) [Compound 141] |  | IC50 [2]: 31 µM
O=c1cc(-c2cccc(Oc3ccccc3)c2)[nH]c2c(-c3ccc(Cl)c(Cl)c3)c(C3CC3)nn12 [Compound 14] | 1 | 
O=c1cc(-c2ccc([N+](=O)[O-])cc2)[nH]c2c(-c3ccc(Cl)c(Cl)c3)c(C(F)(F)F)nn12 [Compound 7] | 0.66 | 
